From patent US20100197603A1, “USE OF RGDSPASSKP AND OPTIONALLY ANGIOTENSIN II AS THERAPEUTIC AGENTS IN THE TREATMENT OF EG S. PNEUMONIAE INFECTIONS” (priority 2007, published 2010)
Where no end group is shown, it is not given here.

How the values were obtained:
HIV-1IIIB = experiment: HIV-1 antiviral assay in CEM-SS cells (MTS readout)
HCMV strain AD169 = experiment: HCMV plaque formation assay in MRC-5 cells; details: for inhibition of HCMV plaque formation as compared to the virus control: 10 micrograms per ml, 7-10 days
[1] = tested on: hepatitis B virus (HBV) ayw strain; experiment: HBV experimental assay system (HepG2-2.2.15, TaqMan PCR of secreted HBV DNA); assay type: cell-based; details: 10 micrograms per ml, six days, HBV DNA by TaqMan PCR
Excerpt: HepG2-2.2.15 is a stable cell line containing the hepatitis B virus (HBV) ayw strain genome (ATCC Cat. No. CRL-11997). Antiviral compounds blocking any late step of viral replication such as transcription, translation, pregenome encapsidation, reverse transcription, particle assembly and release can be identified and characterized using this cell line. In this assay, an active compound will reduce the production of secreted HBV from cells, measured by utilizing real time quantitative PCR (TaqMan) assay to directly and accurately measure HBV DNA copies.
HepG2-2.2.15 cells were plated in 96-well microtiter plates. After 16-24 hours the confluent monolayer of HepG2-2.2.15 cells was washed and the medium was replaced with complete medium containing test peptides—10 micrograms per ml—in duplicate. […] Six days following the initial administration of the peptides, the cell culture supernatants was collected, treated with pronase and DNAse and then used in a real-time quantitative TaqMan PCR assay. The PCR-amplified HBV DNA was detected in real-time by monitoring increases in fluorescence signals that result from the exonucleolytic degradation of a quenched fluorescence probe molecule that hybridizes to the amplified HBV DNA. […] Antiviral activity was calculated from the reduction in HBV DNA levels (% virus control). […]

Streptococcus pneumoniae = Streptococcus pneumoniae growth assay; assay type: cell-based; details: 10 micrograms per ml; 5×10^5 CFU/mL; read visually
murine spleen cells = experiment: Th1/Th2 cytokine profiling assay (Ovalbumin-restimulated spleen cells, CBA kit); assay type: cell-based, Balb/c mice; details: 10 micrograms per ml, Ovalbumin restimulation, 72 hours
[2] = tested on: Primary Human endothelial cells (HUVEC); experiment: Endothelial cell migration assay; assay type: cell-based; details: 10 micrograms per ml, 22 hours
HUVEC = experiment: Endothelial tube formation assay; assay type: cell-based, human; details: 10 micrograms per ml, 20 hours

`Cc1cn([C@H]2C[C@H](N=[N+]=[N-])[C@@H](CO)O2)c(=O)[nH]c1=O` [AZT] was tested. Which “antiviral activity of positive control compounds (HIV-1)” value (HIV-1IIIB) did it give?
Its value is “expected levels of antiviral activity”.

For `Nc1nc(O)c2ncn(COC(CO)CO)c2n1` [Ganciclovir, reference compound], which “antiviral activity of positive control compound (HCMV)” value (HCMV strain AD169; positive control) is on record?
Its value is “expected levels of antiviral activity”.

Which “antiviral activity of positive control compounds (HIV-1)” value (HIV-1IIIB) does the source give for `CC(C)(C)NC(=O)[C@@H]1CN(Cc2cccnc2)CCN1C[C@@H](O)C[C@@H](Cc1ccccc1)C(=O)N[C@H]1c2ccccc2C[C@H]1O` [indinavir] here?
The value was “expected levels of antiviral activity”.

What does the source list for “Arg-Gly-Asp-Ser-Pro-Ala-Ser-Ser-Lys-Pro-OH (RGDSPASSKP-OH) [Peptide 1]”?
inhibition of HBV replication as compared to the virus control infection [1]: 57.8%; inhibition of the growth of Streptococcus pneumoniae (Streptococcus pneumoniae): 100%; change of the production of IL-5 (murine spleen cells): did not significantly change; induction of the production of IFN-γ (murine spleen cells): 24.5%; induction of the production of IL-2 (murine spleen cells): 134.2%; induction of the production of IL-4 (murine spleen cells): 132.5%; induction of the production of TNF-alpha (murine spleen cells): 34.0%; inhibition of the migration of human endothelial cells [2]: 2%; inhibition of the tube formation of human endothelial cells (HUVEC): 54%; inhibition of HCMV plaque formation as compared to the virus control (HCMV strain AD169): did not inhibit

Which results are given for “Asp-Arg-Val-Tyr-Ile-His-Pro-Phe-OH (DRVYIHPF-OH) [Peptide 2]”?
inhibition of HBV replication as compared to the virus control infection [1]: 43.4%; inhibition of the growth of Streptococcus pneumoniae (Streptococcus pneumoniae): 100%; change of the production of IL-5 (murine spleen cells): did not significantly change; induction of the production of IFN-γ (murine spleen cells): 36.4%; induction of the production of IL-2 (murine spleen cells): did not significantly change; induction of the production of IL-4 (murine spleen cells): 55%; induction of the production of TNF-alpha (murine spleen cells): did not significantly change; inhibition of the migration of human endothelial cells [2]: 10%; inhibition of HCMV plaque formation as compared to the virus control (HCMV strain AD169): did not inhibit
